From publication PMC9905048 (Bioorganic & Medicinal Chemistry Letters, 2023) come the findings set out here.

Read-outs that look alike come from different tables or passages of the source. A value given as a limit tells only on which side of the number the result lay.

Data set [1] concerns DENV-2 replicon BHK-21 (DENV2-BHK) cells. Type of data set: cell-based.
Data set [2] relates to SARS-CoV-2 (hCoV-19/Korea/KCDC-06/2020). Briefly: Cell-based antiviral assay against SARS-CoV-2 in Vero cells. To be noted: ratio of EC50, in vitro.
The next data set has as its system Flu B/Lee/40 (Lee). Briefly: Cell-based antiviral assay against Flu B in MDCK cells. The arrangement: species or system influenza B virus.
The subject of data set [3] is cells of the SARS-CoV-2, Flu A/B and DENV-2 assays.
The mark [4] stands for this setting: in vitro, summary for SARS-CoV-2, Flu A/B and DENV-2 assays.

Take `CC(C)C(=O)ONc1ccn([C@@H]2O[C@H](CO)[C@@H](O)[C@H]2O)c(=O)n1` [8a, β-D-N^4-O-isobutyrylcytidine]: in data set [1], the “potency (EC50) against DENV-2 compared with T-705 and amantadine (AMT)” value is “about 2 fold”. The “potency against SARS-CoV-2 compared to NHC (1)” value in data set [2] is given as > 5 fold. In the data set with Flu B/Lee/40 (Lee), the “potency (EC50) against Flu B compared with T-705 and amantadine (AMT)” value was “about 2 fold”.
For the compound C4-2‑hydroxylethyl cytidine [8c], the cell cytotoxicity in data set [3] (setting [4]) is on record as > 100 µM.
Still for that read-out and setting: next, `CC(C)(C)OC(=O)NNc1ccn([C@@H]2O[C@H](CO)[C@@H](O)[C@H]2O)c(=O)n1` [8b, C4-Boc-hyrazinyl cytidine]: > 100 µM.
For the compound `Cl.NNc1ccn([C@@H]2O[C@H](CO)[C@@H](O)[C@H]2O)c(=O)n1` [compound 9, N ^4-aminocytidine], the cell cytotoxicity in data set [3] (African green monkey (Vero), hamster (BHK-21), dog (MDCK)) is listed as > 100 µM.
